Paper PMC7044277 (Nature Communications, 2020)
Where “and” joins values, the source holds several entries; their conditions need not be identical. Equal entries are not always repeated.

Key:
[1] = target: T1, DRD4 (D4.4 variant) wild-type (Homo sapiens, UniProt P21917); experiment: Radioligand competition binding, [3H]-N-methylspiperone; details: DRD4; [3H]-methylspiperone (0.8-1.0 nM); read-out: Ki
T1 sequence (P21917 1-419): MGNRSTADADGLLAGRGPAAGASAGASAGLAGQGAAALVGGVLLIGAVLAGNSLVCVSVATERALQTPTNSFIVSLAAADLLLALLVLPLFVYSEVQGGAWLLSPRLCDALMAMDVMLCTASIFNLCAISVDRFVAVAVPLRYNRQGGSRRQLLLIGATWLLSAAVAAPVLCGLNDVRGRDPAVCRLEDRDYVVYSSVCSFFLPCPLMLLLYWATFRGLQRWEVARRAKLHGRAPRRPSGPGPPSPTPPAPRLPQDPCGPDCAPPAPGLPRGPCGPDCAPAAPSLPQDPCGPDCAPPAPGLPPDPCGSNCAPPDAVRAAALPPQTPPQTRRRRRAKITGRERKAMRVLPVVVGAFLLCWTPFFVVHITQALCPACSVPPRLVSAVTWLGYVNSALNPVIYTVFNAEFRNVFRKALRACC

DRD4 (D4.4 variant) [2] = target: T2, DRD4 (D4.4 variant) (Homo sapiens, UniProt P21917); experiment: Gαi/o-mediated cAMP inhibition (GloSensor); type: cell-based; details: DRD4; agonist, cAMP inhibition; read-out: EC50 ± SEM
T2 sequence (P21917 1-419): T1 sequence (P21917 1-419)

DRD2 (D2 long receptor) [3] = target: T3, DRD2 (D2 long receptor) (Homo sapiens, UniProt P14416); experiment: β-arrestin2 recruitment (Tango), HTLA cells; type: cell-based; details: for Response, Fig_S11c dose-response: individual replicates; as to response, Fig S11c dose-response source data: reference of the scale not given here
T3 sequence (P14416 whole entry): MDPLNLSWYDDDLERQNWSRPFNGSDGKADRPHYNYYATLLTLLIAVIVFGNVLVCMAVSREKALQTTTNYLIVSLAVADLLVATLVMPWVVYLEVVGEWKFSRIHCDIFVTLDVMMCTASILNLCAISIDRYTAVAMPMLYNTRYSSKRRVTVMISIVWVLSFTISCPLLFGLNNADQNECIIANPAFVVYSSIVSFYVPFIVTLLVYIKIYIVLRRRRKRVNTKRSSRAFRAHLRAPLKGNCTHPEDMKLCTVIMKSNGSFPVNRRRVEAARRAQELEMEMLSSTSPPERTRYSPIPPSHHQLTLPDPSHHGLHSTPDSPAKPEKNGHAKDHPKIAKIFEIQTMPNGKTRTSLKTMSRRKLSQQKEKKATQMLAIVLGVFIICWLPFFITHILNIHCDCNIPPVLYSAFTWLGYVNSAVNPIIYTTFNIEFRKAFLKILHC

[4] = target: DRD2 (D2 long receptor) wild-type (Homo sapiens, UniProt P14416); experiment: Radioligand competition binding, [3H]-N-methylspiperone, HEK293T membranes; details: DRD2; [3H]-methylspiperone (0.8-1.0 nM); read-out: Ki
Chain of DRD2 (D2 long receptor) wild-type (P14416 whole entry): as above

DRD3 wild-type = DRD3 wild-type (Homo sapiens, UniProt P35462); experiment: Radioligand competition binding, [3H]-N-methylspiperone
Chain of DRD3 wild-type (P35462 whole entry): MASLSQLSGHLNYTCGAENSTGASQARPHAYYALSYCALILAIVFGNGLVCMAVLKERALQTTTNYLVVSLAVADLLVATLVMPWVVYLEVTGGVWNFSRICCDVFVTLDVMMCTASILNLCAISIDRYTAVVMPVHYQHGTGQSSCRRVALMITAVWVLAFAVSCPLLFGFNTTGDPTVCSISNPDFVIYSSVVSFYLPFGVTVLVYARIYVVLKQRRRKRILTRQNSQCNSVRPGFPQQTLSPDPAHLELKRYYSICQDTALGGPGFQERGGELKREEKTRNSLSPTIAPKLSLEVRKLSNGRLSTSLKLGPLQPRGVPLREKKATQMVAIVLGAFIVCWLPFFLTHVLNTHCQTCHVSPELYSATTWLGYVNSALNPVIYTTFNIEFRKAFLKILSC

DRD2 (D2 long receptor) [5] = target: T3, DRD2 (D2 long receptor); experiment: Gαi/o-mediated cAMP inhibition (GloSensor split-luciferase cAMP reporter), HEK293T; type: cell-based; details: for Response, Fig_S11b dose-response: individual replicates;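 as to all read-outs here: compounds applied 15 min at room temperature, then luciferin plus 400 nM isoproterenol to raise cAMP through endogenous β2-adrenergic receptors, luminescence read 15 min later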
DRD3 = DRD3 (Homo sapiens, UniProt P35462); experiment: β-arrestin2 recruitment (Tango); type: cell-based; details: DRD3; Tango; read-out: EC50 ± SEM
Chain of DRD3 (P35462 whole entry): as above

DRD4 (D4.4 variant) [6] = target: T2, DRD4 (D4.4 variant); experiment: β-arrestin2 recruitment (Tango); type: cell-based; details: DRD4; Tango; read-out: EC50 ± SEM
DRD2 F1103.28A = DRD2 F1103.28A (Homo sapiens, UniProt P14416, F110A); type: binding; design: expressed in transfected cells; host or cells: HEK293T (ATCC CRL-11268); details: DRD2 F1103.28A
Chain of DRD2 F1103.28A (P14416 whole entry F110A): as the sequence (P14416 whole entry) above, with F110A counted along it

CC(NCC1(O)CCCCC1)c1cc2cccc(O)c2o1.Cl (stereo not drawn) [O2LE6]
Ki [1]: > 10 µM | EC50 (DRD4 (D4.4 variant) [2]): > 10 µM | EC50 (DRD2 (D2 long receptor) [3]; DRD2, β-arrestin2 recruitment (Tango), read-out: EC50 ± SEM): > 10 µM | response, Fig_S11c dose-response source data (DRD2 (D2 long receptor) [3]; Fig_S11c, Log[Drug] -5, replicate values): 16.7808 and 14.8237 and 14.215 and 18.5342 and 14.2817 and 15.7604 and 11.4227 and 17.086 and 21.2736 | Response, Fig_S11c dose-response (DRD2 (D2 long receptor) [3]; Log[Drug] -6.52): 3.717 | Response, Fig_S11c dose-response (DRD2 (D2 long receptor) [3]; Log[Drug] -7): 2.811 and 3.15 and 4.053 and 3 and 2.812 and 3.498 and 5.616 and 3.218 and 2.5633 | Response, Fig_S11c dose-response (DRD2 (D2 long receptor) [3]; Log[Drug] -7.52): 2.895 and 3.102 and 3.119 and 2.48 and 2.571 and 2.809 and 3.052 and 1.009 and 2.448 | Response, Fig_S11c dose-response (DRD2 (D2 long receptor) [3]; Log[Drug] -8): 2.815 and 2.652 and 3.1462 and 2.523 and 2.762 and 2.623 and 2.494 and 3.6148 and 1.539 | Response, Fig_S11c dose-response (DRD2 (D2 long receptor) [3]; Log[Drug] -8.52): 3.296 and 2.4132 and 3.209 and 2.229 and 3.453 and 2.266 and 3.066 and 1.184 and 1.383 | Response, Fig_S11c dose-response (DRD2 (D2 long receptor) [3]; Log[Drug] -9): 2.8445 and 2.312 and 2.494 and 3.046 and 2.174 and 2.343 and 1.927 and 6.732 and 6.534 | Response, Fig_S11c dose-response (DRD2 (D2 long receptor) [3]; Log[Drug] -9.52): 2.362 and 2.4976 and 2.923 and 2.359 and 2.154 and 2.345 and 3.43 and 1.364 and 3.781 | Response, Fig_S11c dose-response (DRD2 (D2 long receptor) [3]; Log[Drug] -10): 3.645 and 2.627 and 2.787 and 2.06 and 2.1828 and 2.292 and 2.6786 and 2.1344 and 1.378 | Response, Fig_S11c dose-response (DRD2 (D2 long receptor) [3]; Log[Drug] -10.52): 2.259 and 2.232 and 2.66 and 2.1982 and 2.238 and 2.169 and 4.722 and 1.378 and 2.323 | Response, Fig_S11c dose-response (DRD2 (D2 long receptor) [3]; Log[Drug] -11): 2.37 and 2.502 and 2.312 and 2.1828 (2×) and 2.084 and 1.9407 and 3.057 and 2.849 | Response, Fig_S11c dose-response (DRD2 (D2 long receptor) [3]; Log[Drug] -11.52): 2.185 and 2.208 and 2.688 and 2.5566 and 2.233 and 3.071 and 1.779 and 1.392 and 2.508 | Response, Fig_S11c dose-response (DRD2 (D2 long receptor) [3]; Log[Drug] -12): 2.133 and 2.211 and 2.421 and 5.046 and 2.173 and 2.317 and 0.6771 and 1.599 and 1.023 | Ki [4]: > 10 µM | Ki (DRD3 wild-type; DRD3, [3H]-methylspiperone (0.8-1.0 nM), read-out: Ki): 3.47 µM | pKi ± SEM (DRD3 wild-type; DRD3 wild-type): 5.46±0.10 | EC50 (DRD2 (D2 long receptor) [5]; DRD2, agonist, Gαi/o-mediated cAMP inhibition, read-out: EC50 ± SEM): > 10 µM | Response, Fig_S11b dose-response (DRD2 (D2 long receptor) [5]; Log[Drug] -5): 2.57 and -6.2065 and 9.406 and 22.878 and 21.3481 and -11.9066 and 1.916 | Response, Fig_S11b dose-response (DRD2 (D2 long receptor) [5]; Log[Drug] -5.52): 6.28 and 4.868 and 17.437 and 8.981 and 7.366 and 4.306 and -2.8216 and 10.8339 and 3.867 | Response, Fig_S11b dose-response (DRD2 (D2 long receptor) [5]; Log[Drug] -6): -4.6609 and -0.5921 | Response, Fig_S11b dose-response (DRD2 (D2 long receptor) [5]; Log[Drug] -6.52): -4.5336 and 10.5534 and 15.2708 and -15.8082 and -11.6836 | Response, Fig_S11b dose-response (DRD2 (D2 long receptor) [5]; Log[Drug] -7): 2.459 and 17.8523 and -17.1557 and -9.0384 and -5.1068 and -4.6609 and -7.169 | Response, Fig_S11b dose-response (DRD2 (D2 long receptor) [5]; Log[Drug] -7.52): -18.3605 and -3.0503 and 3.567 and -20.6831 and -11.3334 and 8.381 and -20.49 | Response, Fig_S11b dose-response (DRD2 (D2 long receptor) [5]; Log[Drug] -8): -13.294 and 23.168 and -7.9784 and -20.598 and -10.4409 and -9.4634 and -20.4343 | Response, Fig_S11b dose-response (DRD2 (D2 long receptor) [5]; Log[Drug] -8.52): 0.7703 and -10.5254 and -9.1135 and 3.329 and -12.6933 and -0.7512 and -34.034 and -13.4672 and -11.5164 | Response, Fig_S11b dose-response (DRD2 (D2 long receptor) [5]; Log[Drug] -9): 2.182 and 8.19 and 4.563 and -3.0886 and 6.152 and -13.6902 and -0.3134 | Response, Fig_S11b dose-response (DRD2 (D2 long receptor) [5]; Log[Drug] -9.52): -7.1755 and -21.4059 and -24.6779 and -18.9406 and -5.1068 and 6.486 | Response, Fig_S11b dose-response (DRD2 (D2 long receptor) [5]; Log[Drug] -10): -19.2464 and 38.0628 and -6.9263 and -30.0753 and -2.0262 and 6.261 and -22.9424 and -9.1198 and -15.8639 | Response, Fig_S11b dose-response (DRD2 (D2 long receptor) [5]; Log[Drug] -10.52): -15.9241 and -8.3937 and 23.898 and 3.978 and -13.6344 | Response, Fig_S11b dose-response (DRD2 (D2 long receptor) [5]; Log[Drug] -11): -21.7935 and 4.314 and -22.2642 and -20.2156 and 2.7337 and -9.1755 | Response, Fig_S11b dose-response (DRD2 (D2 long receptor) [5]; Log[Drug] -11.52): 5.117 and 27.9022 and 12.3983 and -0.5921 and -2.4314 and -6.9461 | Response, Fig_S11b dose-response (DRD2 (D2 long receptor) [5]; Log[Drug] -12): 6.64 and -0.2818 and -18.9406 and 16.0358 and 13.8258 and -18.8737 and -20.713 and -0.5921 | EC50 (DRD3): > 10 µM | EC50 (DRD4 (D4.4 variant) [6]): > 10 µM | pKi ± SEM (DRD2 F1103.28A): 5.24±0.17 | Ki (DRD2 F1103.28A; read-out: Ki): 5.75 µM
